Measurements published in patent publication US20230219904A1 (SYNGENTA CROP PROTECTION AG, priority 2020, published 2023).

Assays:
Assay type in all cases: in vivo
Conditions in all cases: evaluated after 13 days
[1] = tested on: Abutilon theophrasti (ABUTH); experiment: Pre-emergence herbicidal glasshouse test (Table B1)
Summary of the method: (§1)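 Spraying at 500 g/h unless indicated occurs either one day after sowing (pre-emergence) or after 8 days of cultivation (post-emergence). Percentage damage is then assessed after 13 days and binned as 5=80-100%, 4=60-79%, 3=40-59%, 2=20-39%, 1=0-19%.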

[2] = tested on: Amaranthus retoflexus (AMARE); experiment: as above
Summary of the method: as §1

[3] = tested on: Echinochloa crus-galh (ECHCG); experiment: as above
Summary of the method: as §1

[4] = tested on: Ipomoea hederacea (IPOHE); experiment: as above
Summary of the method: as §1

Setaria faberi (SETFA) [5] = experiment: as above
Summary of the method: as §1

[6] = tested on: Abutilon theophrasti (ABUTH); experiment: Post-emergence herbicidal glasshouse test (Table B1)
Summary of the method: as §1

[7] = tested on: Amaranthus retoflexus (AMARE); experiment: as above
Summary of the method: as §1

[8] = tested on: Echinochloa crus-galh (ECHCG); experiment: as above
Summary of the method: as §1

[9] = tested on: Ipomoea hederacea (IPOHE); experiment: as above
Summary of the method: as §1

Setaria faberi (SETFA) [10] = experiment: as above
Summary of the method: as §1

Row | SMILES | PRE Application ABUTH, percentage damage on five-point scale ([1]; applied at 500 g/h) | PRE Application AMARE, percentage damage on five-point scale ([2]; applied at 500 g/h) | PRE Application ECHCG, percentage damage on five-point scale ([3]; applied at 500 g/h) | PRE Application IPOHE, percentage damage on five-point scale ([4]; applied) | PRE Application SETFA, percentage damage on five-point scale (Setaria faberi (SETFA) [5]; applied at 500 g/h) | POST Application ABUTH, percentage damage on five-point scale ([6]; applied at 500 g/h) | POST Application AMARE, percentage damage on five-point scale ([7]; applied at 500 g/h) | POST Application ECHCG, percentage damage on five-point scale ([8]; applied at 500 g/h) | POST Application IPOHE, percentage damage on five-point scale ([9]; applied at 500 g/h) | POST Application SETFA, percentage damage on five-point scale (Setaria faberi (SETFA) [10]; applied at 500 g/h) | PRE Application ABUTH, percentage damage on five-point scale ([1]; applied at 125 g/ha) | PRE Application AMARE, percentage damage on five-point scale ([2]; applied at 125 g/ha) | PRE Application ECHCG, percentage damage on five-point scale ([3]; applied at 125 g/ha) | PRE Application IPOHE, percentage damage on five-point scale ([4]; applied at 125 g/ha) | PRE Application SETFA, percentage damage on five-point scale (Setaria faberi (SETFA) [5]; applied at 125 g/ha) | POST Application ABUTH, percentage damage on five-point scale ([6]; applied at 125 g/ha) | POST Application AMARE, percentage damage on five-point scale ([7]; applied at 125 g/ha) | POST Application ECHCG, percentage damage on five-point scale ([8]; applied at 125 g/ha) | POST Application IPOHE, percentage damage on five-point scale ([9]; applied at 125 g/ha) | POST Application SETFA, percentage damage on five-point scale (Setaria faberi (SETFA) [10]; applied at 125 g/ha)
1 | Cn1nnnc1NC(=O)c1ccc(OC(F)(F)F)c(NC(=O)C2CC2)c1Cl [Compound 1.006, 2-chloro-3-(cyclopropanecarbonylamino)-N-(1-methyltetrazol-5-yl)-4-(trifluoromethoxy)benzamide] | 5 (5=80-100%) | 5 (5=80-100%) | 5 (5=80-100%) | 2 (2=20-39%) | 5 (5=80-100%) | 5 (5=80-100%) | 5 (5=80-100%) | 5 (5=80-100%) | 5 (5=80-100%) | 5 (5=80-100%) | – | – | – | – | – | – | – | – | – | –
2 | CC(C)CC(=O)Nc1c(OC(F)(F)F)ccc(C(=O)Nc2nnnn2C)c1Cl [Compound 1.008] | 5 (5=80-100%) | 5 (5=80-100%) | 5 (5=80-100%) | 3 (3=40-59%) | 4 (4=60-79%) | 5 (5=80-100%) | 5 (5=80-100%) | 5 (5=80-100%) | 5 (5=80-100%) | 5 (5=80-100%) | – | – | – | – | – | – | – | – | – | –
3 | CC(F)C(=O)Nc1c(OC(F)(F)F)ccc(C(=O)Nc2nnnn2C)c1Cl (stereo not shown) [Compound 1.009] | 5 (5=80-100%) | 5 (5=80-100%) | 1 (1=0-19%) | 4 (4=60-79%) | 5 (5=80-100%) | 5 (5=80-100%) | 5 (5=80-100%) | 5 (5=80-100%) | 5 (5=80-100%) | 5 (5=80-100%) | – | – | – | – | – | – | – | – | – | –
4 | Cc1cc(C(=O)Nc2c(OC(F)(F)F)ccc(C(=O)Nc3nnnn3C)c2Cl)no1 [Compound 1.011] | 4 (4=60-79%) | 5 (5=80-100%) | 1 (1=0-19%) | 4 (4=60-79%) | 1 (1=0-19%) | 5 (5=80-100%) | 5 (5=80-100%) | 5 (5=80-100%) | 5 (5=80-100%) | 4 (4=60-79%) | – | – | – | – | – | – | – | – | – | –
5 | CCn1nnnc1NC(=O)c1ccc(OC(F)(F)F)c(NC(C)=O)c1Cl [Compound 1.015] | 5 (5=80-100%) | 5 (5=80-100%) | 4 (4=60-79%) | 1 (1=0-19%) | 2 (2=20-39%) | 5 (5=80-100%) | 5 (5=80-100%) | 5 (5=80-100%) | 5 (5=80-100%) | 5 (5=80-100%) | – | – | – | – | – | – | – | – | – | –
6 | CC(F)C(=O)Nc1c(OCC(F)(F)F)ccc(C(=O)Nc2nnnn2C)c1Cl (stereo not shown) [Compound 1.016, 2-chloro-3-(2-fluoropropanoylamino)-N-(1-methyltetrazol-5-yl)-4-(2,2,2-trifluoroethoxy)benzamide] | 5 (5=80-100%) | 5 (5=80-100%) | 5 (5=80-100%) | 5 (5=80-100%) | 5 (5=80-100%) | 5 (5=80-100%) | 5 (5=80-100%) | 5 (5=80-100%) | 5 (5=80-100%) | 5 (5=80-100%) | – | – | – | – | – | – | – | – | – | –
7 | Cn1nnnc1NC(=O)c1ccc(OCC(F)(F)F)c(NC(=O)C2CC2)c1Cl [Compound 1.017] | 5 (5=80-100%) | 5 (5=80-100%) | 5 (5=80-100%) | 5 (5=80-100%) | 5 (5=80-100%) | 4 (4=60-79%) | 5 (5=80-100%) | 5 (5=80-100%) | 5 (5=80-100%) | 5 (5=80-100%) | – | – | – | – | – | – | – | – | – | –
8 | CC(=O)Nc1c(OCC(F)(F)F)ccc(C(=O)Nc2nnnn2C)c1Cl [Compound 1.018, 3-acetamido-2-chloro-N-(1-methyltetrazol-5-yl)-4-(2,2,2-trifluoroethoxy)benzamide] | 4 (4=60-79%) | 5 (5=80-100%) | 3 (3=40-59%) | 3 (3=40-59%) | 3 (3=40-59%) | 5 (5=80-100%) | 5 (5=80-100%) | 5 (5=80-100%) | 4 (4=60-79%) | 5 (5=80-100%) | – | – | – | – | – | – | – | – | – | –
9 | Cn1nnnc1NC(=O)c1ccc(OC(F)F)c(NC(=O)C2CC2)c1Cl [Compound 1.019] | – | – | – | – | – | – | – | – | – | – | 5 (5=80-100%) | 5 (5=80-100%) | 5 (5=80-100%) | 5 (5=80-100%) | 5 (5=80-100%) | 5 (5=80-100%) | 5 (5=80-100%) | 5 (5=80-100%) | 5 (5=80-100%) | 5 (5=80-100%)
10 | CC(C)C(=O)Nc1c(OC(F)F)ccc(C(=O)Nc2nnnn2C)c1Cl [Compound 1.020] | – | – | – | – | – | – | – | – | – | – | 5 (5=80-100%) | 5 (5=80-100%) | 5 (5=80-100%) | 5 (5=80-100%) | 5 (5=80-100%) | 5 (5=80-100%) | 5 (5=80-100%) | 5 (5=80-100%) | 5 (5=80-100%) | 5 (5=80-100%)
